Experimental data as given in patent US7592308B2, “F3W variants of the lantibiotic mersacidin and its use” (priority 2004, dated 2009).
Values after ≈ are worked out from the molar mass of the structure shown. Like-named read-outs stand apart in the source and are kept apart here. Square brackets hold non-standard residues; d marks the D form. Ends that are not written are not given here. Dha = C=C(N)C(=O)O

Assays:
[1] = tested on: M. luteus 4698; type: cell-based, Micrococcus luteus
Description: (§1) A selection of the variants produced in Example 1 above were tested further for activity against a range of bacteria. Minimum inhibitory concentrations (MICs) for all organisms with the exception of Streptococcus pneumoniae were determined by two-fold serial antibiotic dilutions in Mueller-Hinton broth (MHB) supplemented with 50 μg/ml calcium as calcium chloride dihydrate. Minimum inhibitory concentrations (MICs) for S. pneumoniae were determined by two-fold serial antibiotic dilutions in Brain Heart Infusion (BHI) broth supplemented with 50 μg/ml calcium as calcium chloride dihydrate. Antimicrobial agent stock solutions were prepared and stored according to NCCLS standard M7-A6.
(§2) Actively growing broth cultures were diluted to contain […] by adjusting to an absorbance of 0.2-0.3 at 600 nm, equivalent to the McFarland 0.5 standard. They were then diluted a further 1:100 in broth. The assays were performed in duplicate in sterile 96-well microtitre plates in a total volume of 200 μl (160 μl broth, 20 μl antibiotic, 20 μl inoculum) in a concentration range from 64 μg/ml to 0.06 μg/ml. The 12th well of the microtitre plate contained no antimicrobial agent. Vancomycin was used as a reference antibiotic for quality control. Plates were incubated aerobically, shaking, for 18-20 hours at 37° C. with the MIC defined as the lowest concentration of drug that produced no visible growth.

[2] = tested on: S. aureus CS; type: cell-based, Staphylococcus aureus
Description: (§3) MIC tests were performed with some of the variants of Example 2 on a range of other organisms. The results are shown in Tables 9 and 10 (figures in μg/ml): […]

[3] = tested on: S. aureus SG511; type: cell-based, Staphylococcus aureus
Description: as §3

[4] = tested on: S. aureus COL MRSA; type: cell-based, Staphylococcus aureus
Description: as §3

[5] = tested on: S. aureus 1012-13 MRSA; type: cell-based, Staphylococcus aureus
Description: as §3

[6] = tested on: E. faecium 4147-1; type: cell-based, Enterococcus faecium
Description: as §3

[7] = tested on: E. faecium 4147 VRE; type: cell-based, Enterococcus faecium
Description: as §3

[8] = tested on: Micrococcus luteus ATCC4698; test: Bioassay of culture supernatant against M. luteus; type: cell-based; conditions: aqueous phase of chloroform-extracted culture supernatant
Description: The cultures were assayed for production of mersacidin by HPLC and bioassay against Micrococcus luteus ATCC4698. Samples of production cultures (1 ml) were centrifuged at 14000 rpm for 10 minutes. Supernatants were decanted and used undiluted for HPLC and bioassay.
For bioassays, M.luteus was inoculated from frozen stock into 10 ml half-strength Muller-Hinton broth in a 50 ml conical flask, and incubated at 30C with shaking at 250 rpm for approximately 7 hours, 0.3 ml of this culture was used to inoculate 300 ml of Muller-Hinton agar which was poured into a bioassay plate. Wells (6 mm diameter) were made with a cork-borer. Samples of 50 μl of supernatants were added to these wells. The concentration of mersacidin in the samples was calculated by comparing the diameter of inhibition zones of samples against a range of concentrations of a pure mersacidin standard.
Chloramphenicol resistant colonies were selected and grown in 3 ml Tryptic Soy Broth at 30C for 24 hours, 250 rpm and 0.3 ml of these cultures were used to inoculate 7 ml of 2×BPM+300 mM glucose+chloramphenicol (20 mg/l). After five days of incubation at 30C and 250 rpm, a 1 ml sample was collected and centrifuged at 13000 rpm for 10 min, the supernatant was removed, extracted with 1 volume of chloroform and the aqueous phase used for bioassay and HPLC-MS analysis (see accompanying disclosure for method). […] These masses are consistent with production of the expected mature lantibiotic products.
The ligation mixture was used to transform E. coli DH10B (Invitrogen). Ampicillin resistant colonies were selected, grown in LB+ampicillin (100 mg/l) and plasmids were isolated and characterised by sequence analysis. Plasmid encoding the expected mutant (pNB2024) was used to transform E. coli ET12567 and the plasmid obtained from this strains was used to transform Bacillus sp. HIL Y-85,54728 E17A. Chloramphenicol resistant colonies were selected and grown in 3 ml Tryptic Soy Broth at 30C for 24 hours, 250 rpm and 0.3 ml of these cultures were used to inoculate 7 ml of 2×BPM+300 mM glucose+chloramphenicol (20 mg/l). […]

[9] = tested on: S. pyogenes 13608; type: cell-based, Streptococcus pyogenes
Description: as §3

[10] = tested on: S. pyogenes 16205; type: cell-based, Streptococcus pyogenes
Description: as §3

[11] = tested on: E. faecalis 29212; test: MIC, two-fold serial dilution in broth; type: cell-based, Enterococcus faecalis; conditions: Table 8A; MHB + 50 μg/ml calcium; duplicate
Description: as §1, §2

[12] = tested on: S. aureus COL; type: cell-based, Staphylococcus aureus
Description: as §3

[13] = tested on: S. aureus LT 1012-13; test: MIC test, further organisms; type: cell-based, Staphylococcus aureus; conditions: Table 10; duplicate
Description: as §3

[14] = tested on: S. aureus Mu50; test: MIC test, further organisms; type: cell-based, Staphylococcus aureus; conditions: Table 10; duplicate
Description: as §3

[15] = tested on: E. faecium BM4147; test: MIC test, further organisms; type: cell-based, Enterococcus faecium; conditions: Table 10; duplicate
Description: as §3

[16] = tested on: E. faecium 7131121; test: MIC, two-fold serial dilution in broth; type: cell-based, Enterococcus faecium; conditions: Table 8A; MHB + 50 μg/ml calcium; duplicate
Description: as §1, §2

[17] = tested on: E. faecium 19579; test: MIC, two-fold serial dilution in broth; type: cell-based, Enterococcus faecium; conditions: Table 8A; MHB + 50 μg/ml calcium; duplicate
Description: as §1, §2

[18] = tested on: S. pneumoniae R6; type: cell-based, Streptococcus pneumoniae; conditions: Table 8B; BHI broth + 50 μg/ml calcium; duplicate
Description: as §1, §2

[19] = tested on: S. aureus SH1000; type: cell-based, Staphylococcus aureus; conditions: Table 8A; MHB + 50 μg/ml calcium; duplicate
Description: as §1, §2

[20] = Table 8B, MHB + 50 μg/ml calcium, duplicate

## C=C1NC(=O)C2NC(=O)[C@H](CC(C)C)NC(=O)C(NC(=O)[C@@H]3CSC(C)C(NC(=O)[C@H](Cc4c[nH]c5ccccc45)NC(=O)C4NC(=O)[C@@H](N)CSC4C)C(=O)N[C@@H](CC(C)C)C(=O)N4CCC[C@H]4C(=O)NCC(=O)NCC(=O)NCC(=O)NCC(=O)N[C@@H](C(C)C)C(=O)N3)C(C)SC[C@H](NC(=O)[C@H](CCC(=O)O)NC1=O)C(=O)N[C@@H]([C@@H](C)CC)C(=O)NC=CSC2C (stereo partly shown) [F3W, mersacidin F3W]
[1]; 4698
  MIC M. luteus 4698: 0.5 µg/mL (≈ 0.268 µM)
[2]
  MIC S. aureus CS: 4 µg/mL (≈ 2.14 µM)
[3]
  MIC S. aureus SG511: 2 µg/mL (≈ 1.07 µM)
[4]
  MIC S. aureus COL MRSA: 16 µg/mL (≈ 8.58 µM)
[5]
  MIC S. aureus 1012-13 MRSA: 4 µg/mL (≈ 2.14 µM)
[6]; Table 9, 16 h
  MIC E. faecium 4147-1: 32-16 h, μg/ml
[6]; Table 9, 23 h
  MIC E. faecium 4147-1: 64-23 h μg/ml
[7]; 4147 VRE
  MIC E. faecium 4147 VRE: 32 µg/mL (≈ 17.2 µM)
[8]
  antibiotic activity in bioassay against M. luteus: antibiotic activity comparable to mersacidin
[9]
  MIC S. pyogenes 13608: 0.125 µg/mL (≈ 0.067 µM)
[10]
  MIC S. pyogenes 16205: 0.125 µg/mL (≈ 0.067 µM)

## C=C1NC(=O)C2NC(=O)[C@H](CC(C)C)NC(=O)C(NC(=O)[C@@H]3CSC(C)C(NC(=O)[C@H](Cc4ccccc4)NC(=O)C4NC(=O)[C@@H](N)CSC4C)C(=O)N[C@@H](CC(C)C)C(=O)N4CCC[C@H]4C(=O)NCC(=O)N[C@@H](C)C(=O)NCC(=O)NCC(=O)N[C@@H](C(C)C)C(=O)N3)C(C)SC[C@H](NC(=O)[C@H](CCC(=O)O)NC1=O)C(=O)N[C@@H]([C@@H](C)CC)C(=O)NC=CSC2C (stereo partly shown) [G8A, mersacidin G8A]
[1]; 4698
  MIC M. luteus 4698: 4 µg/mL (≈ 2.17 µM)
[2]
  MIC S. aureus CS: 8 µg/mL (≈ 4.35 µM)
[3]
  MIC S. aureus SG511: 8 µg/mL (≈ 4.35 µM)
[4]
  MIC S. aureus COL MRSA: 32 µg/mL (≈ 17.4 µM)
[5]
  MIC S. aureus 1012-13 MRSA: 16 µg/mL (≈ 8.69 µM)
[6]; 4147-1
  MIC E. faecium 4147-1: 128 µg/mL (≈ 69.6 µM)
[7]; Table 9, 16 h
  MIC E. faecium 4147 VRE: 64-16 h, μg/ml
[7]; Table 9, 24 h
  MIC E. faecium 4147 VRE: 128-24 h μg/ml
[8]
  antibiotic activity in bioassay against M. luteus: has antibiotic activity
[9]
  MIC S. pyogenes 13608: 1 µg/mL (≈ 0.543 µM)
[10]
  MIC S. pyogenes 16205: 1 µg/mL (≈ 0.543 µM)

## C=C1NC(=O)C2NC(=O)[C@H](CC(C)C)NC(=O)C(NC(=O)[C@@H]3CSC(C)C(NC(=O)[C@H](Cc4ccccc4)NC(=O)C4NC(=O)[C@@H](N)CSC4C)C(=O)N[C@@H](CC(C)C)C(=O)N4CCC[C@H]4C(=O)NCC(=O)NCC(=O)N[C@@H](C)C(=O)NCC(=O)N[C@@H](C(C)C)C(=O)N3)C(C)SC[C@H](NC(=O)[C@H](CCC(=O)O)NC1=O)C(=O)N[C@@H]([C@@H](C)CC)C(=O)NC=CSC2C (stereo partly shown) [G9A]
[11]
  MIC E. faecalis 29212: >64, >64 μg/ml
[1]; [20]
  MIC M. luteus 4698: <4, <4 μg/ml
[12]; COL
  MIC S. aureus COL: 64, >64 μg/ml
[13]
  MIC S. aureus LT 1012-13: >64, >64 μg/ml
[14]
  MIC S. aureus Mu50: >64, >64 μg/ml
[15]
  MIC E. faecium BM4147: >64, >64 μg/ml

## C=C1NC(=O)C2NC(=O)[C@H](CC(C)C)NC(=O)C(NC(=O)[C@@H]3CSC(C)C(NC(=O)[C@H](Cc4ccccc4)NC(=O)C4NC(=O)[C@@H](N)CSC4C)C(=O)N[C@@H](CC(C)C)C(=O)N[C@@H](Cc4c[nH]cn4)C(=O)NCC(=O)NCC(=O)NCC(=O)NCC(=O)N[C@@H](C(C)C)C(=O)N3)C(C)SC[C@H](NC(=O)[C@H](CCC(=O)O)NC1=O)C(=O)N[C@@H]([C@@H](C)CC)C(=O)NC=CSC2C (stereo partly shown) [P6H]
[11]
  MIC E. faecalis 29212: >64, >64 μg/ml
[12]; Table 10, duplicate
  MIC S. aureus COL: >64, >64 μg/ml
[16]
  MIC E. faecium 7131121: >64, >64 μg/ml
[17]
  MIC E. faecium 19579: >64, >64 μg/ml
[18]
  MIC S. pneumoniae R6: >64, 64 μg/ml
[13]
  MIC S. aureus LT 1012-13: >64, >64 μg/ml
[14]
  MIC S. aureus Mu50: >64, >64 μg/ml
[15]
  MIC E. faecium BM4147: >64, >64 μg/ml

## G8N: mersacidin variant (CTFTLPGNGGVCTLT[Dha]ECIC; thioether (positions not given here); not fully specified; UniProt P43683 49-68, looked up, variant G8N)
[11]
  MIC E. faecalis 29212: >64, >64 μg/ml
[19]
  MIC S. aureus SH1000: >64, >64 μg/ml
[12]; Table 10, duplicate
  MIC S. aureus COL: >64, >64 μg/ml
[17]
  MIC E. faecium 19579: >64, >64 μg/ml
[18]
  MIC S. pneumoniae R6: >64, >64 μg/ml
[13]
  MIC S. aureus LT 1012-13: >64, >64 μg/ml
[14]
  MIC S. aureus Mu50: >64, >64 μg/ml
[15]
  MIC E. faecium BM4147: >64, >64 μg/ml

## G8V: mersacidin variant, inactive in bioassay (CTFTLPGVGGVCTLT[Dha]ECIC; thioether (positions not given here); not fully specified; UniProt P43683 49-68, looked up, variant G8V)
[8]
  antibiotic activity in bioassay against M. luteus: inactive

## G9H: mersacidin variant (CTFTLPGGHGVCTLT[Dha]ECIC; thioether (positions not given here); not fully specified; UniProt P43683 49-68, looked up, variant G9H)
[11]
  MIC E. faecalis 29212: >64, >64 μg/ml
[1]; [20]
  MIC M. luteus 4698: <4, <4 μg/ml
[12]; Table 10, duplicate
  MIC S. aureus COL: >64, >64 μg/ml
[13]
  MIC S. aureus LT 1012-13: >64, >64 μg/ml
[14]
  MIC S. aureus Mu50: >64, >64 μg/ml
[15]
  MIC E. faecium BM4147: >64, >64 μg/ml

## P6N: mersacidin variant (CTFTLNGGGGVCTLT[Dha]ECIC; thioether (positions not given here); not fully specified; UniProt P43683 49-68, looked up, variant P6N)
[12]; Table 10, duplicate
  MIC S. aureus COL: >32, >32 μg/ml
[13]
  MIC S. aureus LT 1012-13: >32, >32 μg/ml
[14]
  MIC S. aureus Mu50: >32, >32 μg/ml
[15]
  MIC E. faecium BM4147: >32, >32 μg/ml
